# Data reported in patent US8178486B2, “Method for promoting hair growth” (Animal Technology Institute Taiwan, priority 2005, dated 2012).
# Test system: hair follicles
# Test: Hair growth in 4-month old female mice, topical application to shaved dorsal skin
# Format: in vivo
# Experimental: The marked areas of the mice were applied by spreading topically on the exposed skin areas 60 μl of aqueous solutions of bovine lactoferrin (200 mg/ml), 60 μl of control vehicle (water), and 60 μl of bovine lactoferricin, obtained as set forth in Example 3, (200 mg/ml) twice daily. Observation for hair growth in the marked areas is made daily after the first treatment. […] The hair growth-promoting effect of lactoferrin or lactoferricin was consistently observed in all tested mice. Although lactoferricin was prepared by the method described in Example 3 above, the present invention should not be limited to use only lactoferricin prepared in such manner. Lactoferricin prepared by other methods would still fall within the scope of the present invention.
substance,measurement,setting,value
lactoferricin,amount of hair growth compared with area treated with lactoferrin of the same amount,"200 mg/ml topically twice daily, 10 days",greater amount of hair growth
same,hair growth observed in the treated skin area,"60 μl of 200 mg/ml topically twice daily, after 10 days, not seen with control vehicle",prominent hair growth
